Results on 3 compounds are retold here after US20020042054A1, “Vigilance nucleic acids and related diagnostic, screening and therapeutic methods” (priority 1999, published 2002).

Series [1] relates to Drosophila. The series is classed as in vivo, Drosophila melanogaster. As for the experimental part:
In order to monitor fly behavior, five-day old virgin female Canton-S Drosophila melanogaster were cultured at 25° C., 50-60% humidity, 12 hr:12 hr light:dark cycle, on brewer's yeast, dark corn syrup and agar food, following procedures modified from J. Bennett and D. L. van Dyke, Dros. Inform. Serv. 46:160 (1971). Continuous, high-resolution measurement of fly behavior was achieved using an ultrasound activity monitoring system shown in FIG. 1A. Briefly, a 44 kHz standing wave was passed across an independent enclosure containing a single fly. An integrated circuit sampled a portion of each wave as a function of the transmit signal and compared it to the output from the receive signal for the same time-window. When the fly moved its mass within the field, it perturbed the standing wave and the resulting difference was counted as a movement. The output was sampled by a PC at 200 Hz, the data were summed in 2-sec bins and stored for later processing. This system detects very small movements in Drosophila's behavioral repertoire, including fine movements of the head, wings, and limbs.
To monitor rest-activity patterns in large numbers of flies, an infrared Drosophila Activity Monitoring System was used (Trikinetics; described in M. Hamblen et al., J. Neurogen. 3:249 (1986)). To validate the system, flies were visually monitored for a total of 17.75 h (n=7). The number of times the fly crossed the infrared beam was counted in 5-minute bins.
Drugs (caffeine or hydroxyzine) dissolved in food were continuously available to flies beginning in the final hour of the light period.
The increase in rest was not associated with a general impairment of fly behavior. The activity per waking minute was unchanged during the dark period (both during the first hour and the subsequent hours). The total amount of activity during the light period was also unchanged. Furthermore, responsiveness to arousing stimuli was preserved.

For series [2], the system named is Drosophila. The series can be described thus: Responsiveness to arousing stimuli in flies given drug. Particulars: in vivo. More on the design: species or system Drosophila melanogaster.
Procedure: In order to determine whether periods of rest are associated with increased arousal thresholds, flies were subjected to vibratory stimuli of increasing intensity (0.05 g, 0.1 g, and 6 g). In these experiments, flies were placed in glass tubes (65 mm in length, 5 mm I.D.) maintained on a hard plastic platform above a Grass speaker. The output of the speaker was controlled via a Beckman signal generator and the resulting vibration of the platform was measured with an accelerometer. Each fly received a stimulus each hour (total of 8 stimuli) of constant intensity. The behavioral state at the time of stimulus delivery and the ensuing response were videotaped and scored off-line.
The test system of series [3] is Drosophila. The series can be described thus: Grooming control for validating the infrared system: dusting flies. The class given is in vivo, Drosophila melanogaster. Particulars: flies dusted with the substance. The method, then:
Additional controls were used to validate the infrared system. […] It was determined that food deprivation for 1 day increased waking by 50% in Drosophila.

For `Cn1c(=O)c2c(ncn2C)n(C)c1=O` [caffeine], in the series with Drosophila [1] (drug in food from the final hour of the light period, n=36/dose), the motor activity result was “increased”. In addition, in the series on Drosophila [1] (drug in food from the final hour of the light period, n=36/dose, p<0.0001, FIG. 3C), the “amount of rest during the dark period” value was “decreased in a dose-dependent fashion”.

In the case of `OCCOCCN1CCN(C(c2ccccc2)c2ccc(Cl)cc2)CC1` (centres unmarked) [hydroxyzine], in the series with Drosophila [1] (drug in food from the final hour of the light period, n=40/dose, FIG. 3D), the “rest during the first hour of the dark period” value is reported as “increased in a dose-dependent manner”. The “latency to first dark period rest” value in the series with Drosophila [1] (drug in food from the final hour of the light period, n=40/dose, FIG. 3E) is “decreased”. Besides, the “total amount of activity during the light period” value in the series on Drosophila [1] (in vivo) is given as “unchanged”. In addition, the “responsiveness to arousing stimuli” value with Drosophila [2] was “preserved”.

As for Reactive Yellow, in the series on Drosophila [3], the “increase in grooming behavior” value amounted to 72% and the “number of infrared crossings” value is “did not reduce”.
